This note sets out measurements from ChEMBL document CHEMBL3232845 (Bioorg Med Chem Lett, 2014).

The target of data set [1] is T1, Serine/threonine-protein kinase B-raf (Homo sapiens, UniProt P15056, V600E). In words: Inhibition of B-Raf V600E mutant in human Malme-3M cells assessed as basal ERK phosphorylation. The format is cell-based.
Data set [2] addresses T1, Serine/threonine-protein kinase B-raf. In words: Inhibition of full-length B-Raf V600E mutant (unknown origin).
A short description of data set [3]: Oral bioavailability in mouse at 30 mg/kg. Format: ADME, organism-based. Particulars: in vivo.
Data set [4] can be described thus: AUC in mouse at 30 mg/kg, po. Format: ADME, organism-based. Also on record: dose 30 mg/kg, route oral. The note with it: plasma.
A short description of data set [5]: Apparent permeability of the compound from apical to basolateral direction in pig LLC-PK1 cells. Format: ADME, cell-based, Sus scrofa.
The nature of data set [6]: Volume of distribution in mouse. The format is ADME, organism-based. The note with it: in vivo.
A short description of data set [7]: Clearance in mouse at 2.5 mg/kg, iv. The format is ADME, organism-based. Particulars: in vivo. Set-up: dose 2.5 mg/kg, route intravenous.

T1 sequence (P15056 2-766 V600E limits assumed): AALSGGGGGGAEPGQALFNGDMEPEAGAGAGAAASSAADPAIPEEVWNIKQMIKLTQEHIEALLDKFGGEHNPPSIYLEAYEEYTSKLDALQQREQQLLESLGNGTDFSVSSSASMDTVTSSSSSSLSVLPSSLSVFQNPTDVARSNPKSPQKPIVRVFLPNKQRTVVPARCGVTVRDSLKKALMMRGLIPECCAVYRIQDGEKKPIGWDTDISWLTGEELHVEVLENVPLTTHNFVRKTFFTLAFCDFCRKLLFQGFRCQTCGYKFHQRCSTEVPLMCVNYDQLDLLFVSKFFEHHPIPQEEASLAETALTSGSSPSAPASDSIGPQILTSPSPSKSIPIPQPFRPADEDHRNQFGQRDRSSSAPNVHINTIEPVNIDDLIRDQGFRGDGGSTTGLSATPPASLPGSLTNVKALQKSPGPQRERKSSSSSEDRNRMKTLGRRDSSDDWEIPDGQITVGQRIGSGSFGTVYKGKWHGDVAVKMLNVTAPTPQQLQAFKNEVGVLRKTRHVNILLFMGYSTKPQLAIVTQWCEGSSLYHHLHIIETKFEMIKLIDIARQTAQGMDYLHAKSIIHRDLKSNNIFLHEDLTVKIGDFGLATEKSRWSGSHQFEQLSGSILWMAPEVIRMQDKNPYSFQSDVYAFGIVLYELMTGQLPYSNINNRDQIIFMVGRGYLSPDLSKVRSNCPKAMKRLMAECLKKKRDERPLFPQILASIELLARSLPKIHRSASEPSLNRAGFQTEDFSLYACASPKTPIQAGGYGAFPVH

As a reminder, the IC50 is the concentration that gives 50% inhibition. For `CCCS(=O)(=O)Nc1cccc(Oc2ccc3ncn(C)c(=O)c3c2)c1C#N`, the values for the half-maximal inhibitory concentration (IC50) in data set [1] and in data set [2] were 7 nM and 0.3 nM, respectively.
For `CCCS(=O)(=O)Nc1ccc(F)c(Oc2ccc3ncn(C)c(=O)c3c2)c1C#N`, the IC50 in data set [1] was 3 nM; in data set [2] it was 0.2 nM.
On the same counts, the results for `CCCS(=O)(=O)Nc1ccc(F)c(Nc2ccc3ncccc3c2)c1F` are 6250 nM and 314 nM.
On to `CCCS(=O)(=O)Nc1ccc(F)c(Nc2ccc3ncn(C)c(=O)c3c2)c1F`, for which the IC50 in data set [1] amounted to 55 nM; in data set [2] it was 19 nM.
For the compound `CCCS(=O)(=O)Nc1ccc(F)c(Nc2ccc3ncnc(OC)c3c2)c1Cl`, the IC50 in data set [1] is 733 nM; in data set [2] it was 16 nM.
For the compound `CCCS(=O)(=O)Nc1ccc(C)c(Nc2ccc3ncn(C)c(=O)c3c2)c1`, in data set [2], 851 nM corresponded to half-maximal inhibition (IC50).
Turning to `CCCS(=O)(=O)Nc1ccc(F)c(Nc2ccc3ncncc3c2)c1Cl`, the IC50 in data set [1] turned out to be 44 nM; in data set [2], 4 nM.
As for `CCCS(=O)(=O)Nc1ccc(F)c(N(CC)c2ccc3ncn(C)c(=O)c3c2)c1Cl`, the half-maximal inhibitory concentration (IC50) in data set [1] turned out to be 603 nM; in data set [2], 30 nM.
As for `CCCS(=O)(=O)Nc1ccc(F)c(N(C)c2ccc3ncn(C)c(=O)c3c2)c1Cl`, the IC50 in data set [1] was 114 nM; in data set [2], 8 nM.
Consider `CCCS(=O)(=O)Nc1ccc(Cl)c(N(C)c2ccc3ncn(C)c(=O)c3c2)c1F`, for which the IC50 in data set [1] amounted to 84 nM; in data set [2], 3 nM.
On the same counts, the results for `CCCS(=O)(=O)Nc1ccc(F)c(Nc2ccc3ncn(-c4cnn(C)c4)c(=O)c3c2)c1Cl` are 18 nM and 2 nM.
For `CCCS(=O)(=O)Nc1ccc(Cl)c(Nc2ccc3ncn(C)c(=O)c3c2)c1F`, the IC50 in data set [1] was 116 nM; in data set [2], 12 nM.
On the same counts, the results for `CCCS(=O)(=O)Nc1ccc(F)c(Nc2ccc3nccnc3c2)c1Cl` are 814 nM and 25 nM.
In general, AUC refers to the area under the concentration-time curve, a measure of exposure. Broadly, the Papp A→B is the apparent permeability from the apical to the basolateral side of a cell layer. As a reminder, the Vd is the apparent volume that relates the amount in the body to the concentration in plasma or blood. Higher therefore signals extensive tissue distribution. The clearance is the volume of plasma or blood freed of the substance per unit of time. Lower therefore signals inefficient removal. On to `CCCS(=O)(=O)Nc1ccc(F)c(Nc2ccc3ncn(C)c(=O)c3c2)c1Cl`, for which, in data set [3], the bioavailability turned out to be 112%. Also, the IC50 in data set [1] worked out at 26 nM; in data set [2], 2 nM. Moreover, the AUC in data set [4] came out at 282 µM·h. Further, the Papp A→B in data set [5] is over 8 ×10⁻⁶ cm/s. This compound yielded a Vd in data set [6] of 0.49 L/kg. The clearance in data set [7] was determined as 4.7 mL/min/kg.
Take `CCCS(=O)(=O)Nc1ccc(F)c(Nc2ccc3ncncc3c2)c1F`: the IC50 in data set [1] was 118 nM; in data set [2], 33 nM.
The like results for `CCCS(=O)(=O)Nc1ccc(F)c(Nc2ccc3ncn(Cc4ccccc4)c(=O)c3c2)c1Cl` were, in that order, 581 nM and 17 nM.
In the case of `CCCS(=O)(=O)Nc1ccc(F)c(Nc2ccc3ncnc(N(C)C)c3c2)c1Cl`, the IC50 in data set [1] turned out to be 878 nM; in data set [2], 100 nM.
In the case of `CCCS(=O)(=O)Nc1ccc(F)c(N(CC)c2ccc3ncn(C)c(=O)c3c2)c1F`, the IC50 was 110 nM in data set [1] and 26 nM in data set [2].
On the same counts, the results for `CCCS(=O)(=O)Nc1ccc(Cl)c(Oc2ccc3ncn(C)c(=O)c3c2)c1C#N` are 15 nM and 0.2 nM.
On the same counts, the results for `CCCS(=O)(=O)Nc1ccc(F)c(Nc2ccc3ncnc(NC)c3c2)c1Cl` are 132 nM and 11 nM.
Take `CCCS(=O)(=O)Nc1ccc(F)c(N(C)c2ccc3ncn(C)c(=O)c3c2)c1F`: the IC50 came to 62 nM in data set [1] and 11 nM in data set [2].
The like results for `CCCS(=O)(=O)Nc1ccc(Cl)c(Nc2ccc3ncn(C)c(=O)c3c2)c1C#N` were, in that order, 16 nM and 0.2 nM.
